Experimental data as given in PMC9648375, “Identification of the first-in-class dual inhibitors of human DNA topoisomerase IIα and indoleamine-2,3-dioxygenase 1 (IDO 1) with strong anticancer properties” (Journal of Enzyme Inhibition and Medicinal Chemistry, 2022).
In brackets after ≈: the same amount, converted by molar mass.

Legend:
[1] = target: T1, indoleamine-2,3-dioxygenase 1 (IDO 1) (Homo sapiens, UniProt P14902); assay: Universal IDO1/IDO2/TDO Inhibitor Screening Assay Kit; format: biochemical; details: fixed dose of 50 µg/ml; read-out: IDO 1 inhibition (%) ± SD
T1 construct: purchased BPS Bioscience, Inc. (San Diego, CA, USA)
T1 sequence (P14902 whole entry): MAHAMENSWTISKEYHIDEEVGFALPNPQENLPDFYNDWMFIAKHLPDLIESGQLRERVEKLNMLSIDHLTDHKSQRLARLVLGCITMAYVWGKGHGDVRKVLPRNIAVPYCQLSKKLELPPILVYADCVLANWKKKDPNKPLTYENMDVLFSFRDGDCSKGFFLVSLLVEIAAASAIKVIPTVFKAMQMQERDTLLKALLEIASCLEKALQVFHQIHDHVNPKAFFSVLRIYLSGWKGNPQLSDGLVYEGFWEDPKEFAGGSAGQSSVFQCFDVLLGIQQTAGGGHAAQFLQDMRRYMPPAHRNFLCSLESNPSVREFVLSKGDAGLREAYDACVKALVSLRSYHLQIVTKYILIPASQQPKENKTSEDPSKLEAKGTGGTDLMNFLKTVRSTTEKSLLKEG

[2] = tested on: AGS (human gastric adenocarcinoma); assay: BrdU assay; format: cell-based; details: 24 h, read-out: IC50 ± SD, antiproliferative activity
Description: (§1) Since the inhibition of human DNA topoisomerase II should result in decreased proliferation of cancer cells, compounds 1-3 were tested using BrdU assay against a panel of cancer cell lines, including MCF-7 (estrogen-dependent human breast cancer cells), MDA-MB-231 (estrogen-independent human breast cancer cells), SCC-25 (squamous cell carcinoma of the tongue), FaDu (squamous cell carcinoma of the pharynx), A549 (human lung carcinoma), AGS (human gastric adenocarcinoma), LS-180, HT-29 (colon cancer cell lines), T98G (glioblastoma cells), and A375 (melanoma cells). Human normal skin fibroblasts (CRL-2072) were also used as a reference cell line. The BrdU assay allows quantification of cell proliferation since it measures incorporation of thymidine analogue (BrdU) during DNA replication. […] However, although the antiproliferative effect caused by 3 was mostly weaker (except for A549 and A375) than observed for 1, but the former compound was also characterised by lower toxicity against human normal cells. It results in selectivity index approaching 125 and 57, when it comes to lung cancer (A549) and melanoma cells (A375), respectively.
(§2) Cytotoxicity of the synthesised compounds were examined against a panel of the cancer cell lines, MCF-7 (estrogen-dependent human breast cancer cells), MDA-MB-231 (oestrogen-independent human breast cancer cells), SCC- 25 (squamous cell carcinoma of the tongue), FaDu (squamous cell carcinoma of the pharynx), A- 549 (human lung carcinoma), AGS (human gastric adenocarcinoma), LS-180, HT-29 (colon cancer cell lines), T98G (glioblastoma cells), A375 (melanoma cells). Human embryonic kidney (HEK-293) cells and human normal skin fibroblasts (CRL-2072) were used as reference cell lines. The investigated cell lines were obtained from American Type Culture Collection (ATCC; Manassas, VA, USA). A375, MCF-7, MDA-MB-231, T98G cells were cultured in Dulbecco’s Modified Eagle’s Medium (DMEM) (Sigma Aldrich, St. Louis, MO, USA) supplemented with 10% heat inactivated foetal bovine serum (FBS), penicillin (100 U/mL), and streptomycin (100 μg/mL). SCC-25 cells were cultured in 1:1 mixture of Dulbecco’s modified Eagle’s medium and Ham’s F12 Medium (Sigma Aldrich, St. Louis, MO, USA) supplemented with 400 ng/ml hydrocortisone, 10% FBS, penicillin (100 U/mL), and streptomycin (100 μg/mL). A549 and AGS cells were maintained in F-12K Medium (Sigma Aldrich, St. Louis, MO, USA). LS-180 and FaDu cells were cultured in Eagle’s Minimum Essential Medium. HT-29 cells were maintained in McCoy’s 5 A Medium (Sigma Aldrich, St. Louis, MO, USA) supplemented with 10%FBS, penicillin (100 U/mL), and streptomycin (100 μg/mL). All the cells were maintained at 37 °C in a humidified atmosphere of 5% CO2.
(§3) The BrdU assay was performed to determine the effect of synthesised compounds on the proliferation of cancer cells. BrdU assay indicates the rate of incorporation of 5′-bromo-2′-deoxy-uridine (BrdU) during DNA biosynthesis. In brief, cells were plated in 96-well plates (NUNC, Roskilde, Denmark) at the density of 3 × 10^4 cells/mL. […] Cell proliferation was examined after 24 h and 48 h of incubation according to the manufacturer’s protocol (Cell Proliferation ELISA BrdU, Roche Diagnostics GmbH, Penzberg,)Germany).

[3] = tested on: A549 (human lung carcinoma); assay: BrdU assay; format: cell-based; details: for IC50: Homo sapiens, A549, BrdU, 24 h, read-out: IC50 ± SD, antiproliferative activity
Description: as §1, §2, §3

[4] = tested on: FaDu (squamous cell carcinoma of the pharynx); assay: BrdU assay; format: cell-based; details: Homo sapiens, 24 h, read-out: IC50 ± SD, antiproliferative activity
Description: as §1, §2, §3

[5] = tested on: HT-29 (colon cancer cell line); assay: BrdU assay; format: cell-based; details: Homo sapiens; HT-29, BrdU, 24 h; read-out: IC50 ± SD, antiproliferative activity
Description: as §1, §2, §3

[6] = tested on: Human normal skin fibroblasts (CRL-2072); assay: BrdU assay; format: cell-based; details: Skin fibroblast, 24 h, read-out: IC50 ± SD, antiproliferative activity
Description: as §1, §2, §3

[7] = tested on: LS180 (colon cancer cell line); assay: BrdU assay; format: cell-based; details: Homo sapiens, 24 h, read-out: IC50 ± SD, antiproliferative activity
Description: as §1, §2, §3

[8] = tested on: T98G (glioblastoma cells); assay: BrdU assay; format: cell-based; details: Homo sapiens, 24 h, read-out: IC50 ± SD, antiproliferative activity
Description: as §1, §2, §3

[9] = tested on: MCF-7 (estrogen-dependent human breast cancer cells); assay: BrdU assay; format: cell-based; details: MCF7, MCF-7, BrdU, 24 h, read-out: IC50 ± SD, antiproliferative activity
Description: as §1, §2, §3

[10] = tested on: SCC-25 (squamous cell carcinoma of the tongue); assay: BrdU assay; format: cell-based; details: Homo sapiens; SCC-25, BrdU, 24 h; read-out: IC50 ± SD, antiproliferative activity
Description: as §1, §2, §3

[11] = tested on: MDA-MB-231 (estrogen-independent human breast cancer cells); assay: BrdU assay; format: cell-based; details: MDA-MB-231, BrdU, 24 h, read-out: IC50 ± SD, antiproliferative activity
Description: as §1, §2, §3

[12] = tested on: panel of cancer cell lines; assay: BrdU assay, whole panel; format: cell-based, human; details: cell line not named, highest value
Description: as §1, with “respectively. […]” for “respectively.”

A375 (melanoma cells) = assay: BrdU assay; format: cell-based, human; details: for IC50: Homo sapiens, A-375, A375, BrdU, 24 h, read-out: IC50 ± SD, antiproliferative activity
Description: as §1, §2, §3

Row | inhibition at 50 µg/mL [1] [%] | IC50 [2] [µg/mL] | IC50 [3] [µg/mL] | IC50 [4] [µg/mL] | IC50 [5] [µg/mL] | IC50 [7] [µg/mL] | IC50 [8] [µg/mL] | IC50 [9] [µg/mL] | IC50 [10] [µg/mL] | IC50 [11] [µg/mL] | IC50 (A375 (melanoma cells)) [µg/mL] | SMILES | IC50 [6] [µg/mL] | antiproliferative activity, fold higher than that of etoposide [12] [fold] | selectivity index, A549 vs. human normal skin fibroblasts ([3]; BrdU assay, lung cancer (A549)) | selectivity index, A375 vs. human normal skin fibroblasts (A375 (melanoma cells); BrdU assay, melanoma cells (A375))
1 | 91.4 ± 1.82 | 0.51 ± 0.02 (≈ 1.22 µM) | 0.23 ± 0.01 (≈ 0.548 µM) | 1.04 ± 0.04 (≈ 2.48 µM) | 0.44 ± 0.03 (≈ 1.05 µM) | 4.68 ± 0.17 (≈ 11.2 µM) | 0.72 ± 0.02 (≈ 1.72 µM) | 1.19 ± 0.04 (≈ 2.84 µM) | 1.1 ± 0.02 (≈ 2.62 µM) | 26.3 ± 0.99 (≈ 62.7 µM) | 0.96 ± 0.03 (≈ 2.29 µM) | CC(C)c1cccc(C(C)C)c1NC(=S)NNC(=O)Cc1cccc2ccccc12 [Compound 1, 4-(2,6-Diisopropylphenyl)-1-[(naphth-1-yl)acetyl]thiosemicarbazide] | 22.4 ± 0.94 (≈ 53.3 µM) | ≤ 90 | – | –
2 | 41.4 ± 2.47 | 62.3 ± 3.04 (≈ 142 µM) | 0.83 ± 0.03 (≈ 1.89 µM) | 7.11 ± 0.34 (≈ 16.2 µM) | 9.47 ± 0.51 (≈ 21.5 µM) | 10.4 ± 0.77 (≈ 23.6 µM) | 6.19 ± 1.83 (≈ 14.1 µM) | 33.2 ± 1.05 (≈ 75.4 µM) | 1.06 ± 0.04 (≈ 2.41 µM) | > 100 | 0.85 ± 0.04 (≈ 1.93 µM) | O=C(Cc1cccc2ccccc12)NNC(=S)Nc1ccc(N=Nc2ccccc2)cc1 [Compound 2, 4-(4-Phenylazophenyl)-1-[(naphth-1-yl)acetyl]thiosemicarbazide] | 24.2 ± 1.4 (≈ 55 µM) | – | – | –
3 | 21.4 ± 1.05 | 43.9 ± 1.94 (≈ 104 µM) | 0.25 ± 0.01 (≈ 0.595 µM) | 9.04 ± 0.39 (≈ 21.5 µM) | 13.1 ± 0.81 (≈ 31.3 µM) | 10.6 ± 0.24 (≈ 25.1 µM) | 6.28 ± 0.37 (≈ 14.9 µM) | 32.5 ± 1.98 (≈ 77.4 µM) | 4.89 ± 0.22 (≈ 11.6 µM) | > 100 | 0.56 ± 0.03 (≈ 1.33 µM) | O=C(NNC(=S)Nc1ccc(N=Nc2ccccc2)cc1)c1ccccc1[N+](=O)[O-] [Compound 3, 4-(4-Phenylazophenyl)-1-(2-nitrobenzoyl)thiosemicarbazide] | 32.1 ± 1.75 (≈ 76.4 µM) | – | ~125 | ~57
4 | – | 46 ± 2.61 (≈ 78.1 µM) | 2.6 ± 0.11 (≈ 4.42 µM) | 12.8 ± 0.27 (≈ 21.8 µM) | 19.9 ± 0.25 (≈ 33.9 µM) | > 100 | 29.5 ± 0.93 (≈ 50.1 µM) | 54.9 ± 1.82 (≈ 93.3 µM) | 21.2 ± 0.74 (≈ 36 µM) | > 100 | 9.18 ± 0.15 (≈ 15.6 µM) | COc1cc([C@@H]2c3cc4c(cc3[C@@H](O[C@@H]3O[C@@H]5CO[C@@H](C)O[C@H]5[C@H](O)[C@H]3O)[C@H]3COC(=O)[C@H]23)OCO4)cc(OC)c1O [Etoposide, etoposide, reference compound] | 55.7 ± 3.01 (≈ 94.6 µM) | – | – | –
